Literature values, collected in patent US9744192B2, “Methods of treating chronic rhinosinusitis” (priority 2015, dated 2017).
Where two headings read alike, the source gives them in different places.

Key:
[1] = tested on: 17 bacteria and fungi (human pathogens)
[2] = tested on: Bacillus shiga-kruse (aka: Shigella dysenteriae); settings: 2-3% aqueous boric acid, agar culture
[3] = tested on: 17 bacterial strains including Staphylococcus aureus, Enterococcus faecalis, E. coli, Klebsiella pneumonia and others; settings: 2.5% boric acid
Candida albicans = settings: for strains with complete growth inhibition: 1% aqueous boric acid
[4] = tested on: Saccharomyces cerevisiae cells; settings: living cells
[5] = aqueous solution, pH=7.4

OB(O)O [boric acid, Boric acid]
integrity of initial bacterial or fungal counts ([1]; boric acid 1.8-2%, urine samples, up to 24 hours at 24° C.): maintained for all human pathogens studied
reversibility of the bacteriostatic effect after dilution into nutrient culture media ([1]; preserved samples diluted out): rapid and complete reversibility
agglutination [2]: marked agglutination
bacterial strains with complete growth inhibition [3]: 17 of 17
strains with complete growth inhibition (Candida albicans; fluconazole-resistant strains): 24 of the 25
strains with complete growth inhibition (Candida albicans; fluconazole-susceptible strains): 45 of the 46
sudden physical membrane damage (Candida albicans; 1% boric acid): No sign of sudden physical membrane damage
membrane integrity (Candida albicans; 24 hour exposure to 1% boric acid): decreased only slightly
effect on cell morphology [4]: alter the morphology
tissue irritation or other adverse events (in vivo): little or no evidence
absorption across uninjured skin or vaginal epithelium (topical): not significantly absorbed
borate B(OH)4− share of equilibrium [5]: 1.6%
free boric acid B(OH)3 share of equilibrium [5]: 98.4%
